According to PubChem BioAssay (NCI):
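Grown in 96-well plates, cells were treated for 48 hours with each compound at five concentrations. Insufficient inhibition: endpoint recorded as highest concentration tested. Here, GI50 denotes the concentration required for 50% inhibition of growth. TGI denotes the concentration required for complete inhibition of growth.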

How the values were obtained:
Assay in all cases: DTP human tumour cell line panel, 48 h
[1] = system: CCRF-CEM leukemia
[2] = system: A498 renal
[3] = system: MALME-3M melanoma
[4] = system: T-47D breast
[5] = system: SK-MEL-2 melanoma
[6] = system: SW-620 colon
[7] = system: KM12 colon
[8] = system: HS 578T breast
[9] = system: OVCAR-3 ovarian
[10] = system: NCI/ADR-RES ovarian
[11] = system: MCF7 breast
[12] = system: RXF 393 renal
[13] = system: ACHN renal
[14] = system: HL-60(TB) leukemia
[15] = system: SK-MEL-28 melanoma
[16] = system: MOLT-4 leukemia
[17] = system: SF-539 CNS
[18] = system: BT-549 breast
[19] = system: LOX IMVI melanoma
[20] = system: HCT-15 colon
[21] = system: NCI-H23 lung
[22] = system: A549 NSCLC
[23] = system: OVCAR-5 ovarian
[24] = system: HT29 colon
[25] = system: CAKI-1 renal
[26] = system: OVCAR-8 ovarian
[27] = system: NCI-H460 lung
[28] = system: DU-145 prostate
[29] = system: SN12C renal
[30] = system: SNB-75 CNS
[31] = system: HOP-92 NSCLC
[32] = system: IGROV1 ovarian
[33] = system: U251 CNS
[34] = system: SK-MEL-5 melanoma
[35] = system: EKVX NSCLC
[36] = system: M14 melanoma
[37] = system: UACC-62 melanoma
[38] = system: SNB-19 CNS
[39] = system: SF-268 CNS
[40] = system: SR leukemia
[41] = system: PC-3 prostate
[42] = system: OVCAR-4 ovarian
[43] = system: COLO 205 colon
[44] = system: MDA-MB-435
[45] = system: NCI-H226 lung
[46] = system: RPMI-8226 leukemia
[47] = system: HCT-116 colon
[48] = system: SK-OV-3 ovarian
[49] = system: HOP-62 NSCLC
[50] = system: MDA-MB-231 breast
[51] = system: NCI-H522 lung
[52] = system: UACC-257 melanoma
[53] = system: TK-10 renal
[54] = system: SF-295 CNS
[55] = system: K-562 leukemia
[56] = system: UO-31 renal
[57] = system: 786-0 renal
[58] = system: HCC-2998 colon

CCOC(=O)C1=C(C)NC(=O)NC1c1coc2cc(C)cc(C)c2c1=O (centres undefined)
TGI [1]: > 100 µM
TGI [2]: > 100 µM
TGI [3]: > 100 µM
TGI [4]: > 100 µM
TGI [5]: 99.5 µM
TGI [6]: > 100 µM
TGI [7]: > 100 µM
TGI [8]: > 100 µM
TGI [9]: > 70.5 µM
TGI [10]: > 100 µM
TGI [11]: > 100 µM
TGI [12]: > 100 µM
TGI [13]: > 100 µM
TGI [14]: > 100 µM
TGI [15]: > 100 µM
TGI [16]: > 100 µM
TGI [17]: > 100 µM
TGI [18]: > 100 µM
TGI [19]: > 100 µM
TGI [20]: > 100 µM
TGI [21]: > 100 µM
TGI [22]: > 100 µM
TGI [23]: > 100 µM
TGI [24]: > 100 µM
TGI [25]: > 100 µM
TGI [26]: > 100 µM
TGI [27]: > 100 µM
TGI [28]: > 100 µM
TGI [29]: > 100 µM
TGI [30]: > 100 µM
TGI [31]: > 100 µM
TGI [32]: > 100 µM
TGI [33]: > 100 µM
TGI [34]: > 100 µM
TGI [35]: > 100 µM
TGI [36]: > 100 µM
TGI [37]: > 100 µM
TGI [38]: > 100 µM
TGI [39]: > 100 µM
TGI [40]: > 79.8 µM
TGI [41]: > 100 µM
TGI [42]: > 100 µM
TGI [43]: > 100 µM
TGI [44]: 45.4 µM
TGI [45]: > 100 µM
TGI [46]: > 100 µM
TGI [47]: > 100 µM
TGI [48]: > 100 µM
TGI [49]: > 100 µM
TGI [50]: > 100 µM
TGI [51]: 14.5 µM
TGI [52]: > 100 µM
TGI [53]: > 100 µM
TGI [54]: > 100 µM
TGI [55]: > 100 µM
TGI [56]: > 100 µM
TGI [57]: > 100 µM

O=C1/C(=C\c2coc3ccccc3c2=O)c2ccccc2N1c1c(Cl)cccc1Cl
GI50 [1]: 2.08 µM
TGI [1]: > 100 µM
GI50 [2]: 4.35 µM
TGI [2]: > 100 µM
GI50 [3]: 2.48 µM
TGI [3]: 13 µM
GI50 [4]: 3.05 µM
TGI [4]: 31.1 µM
GI50 [5]: 2.75 µM
TGI [5]: 6.04 µM
GI50 [6]: 5.28 µM
TGI [6]: > 100 µM
GI50 [58]: 5.33 µM
TGI [58]: > 100 µM
GI50 [7]: 3.06 µM
TGI [7]: 68.5 µM
GI50 [8]: 9.05 µM
TGI [8]: > 100 µM
GI50 [9]: 2.71 µM
TGI [9]: 10.3 µM
GI50 [10]: 3.42 µM
TGI [10]: > 100 µM
GI50 [11]: 3.21 µM
TGI [11]: > 100 µM
GI50 [12]: 1.86 µM
TGI [12]: 5.11 µM
GI50 [13]: 4.14 µM
TGI [13]: > 100 µM
GI50 [14]: 2.08 µM
TGI [14]: 87.6 µM
GI50 [15]: 3.91 µM
TGI [15]: > 100 µM
GI50 [16]: 2.98 µM
TGI [16]: > 100 µM
GI50 [17]: 3.06 µM
TGI [17]: > 100 µM
GI50 [18]: 2.83 µM
TGI [18]: 35.3 µM
GI50 [19]: 1.52 µM
TGI [19]: 8.91 µM
GI50 [20]: 0.65 µM
TGI [20]: > 100 µM
GI50 [21]: 4.45 µM
TGI [21]: > 100 µM
GI50 [22]: 4.24 µM
TGI [22]: > 100 µM
GI50 [23]: 20.9 µM
TGI [23]: > 100 µM
GI50 [24]: 3.05 µM
TGI [24]: > 100 µM
GI50 [25]: 2.45 µM
TGI [25]: > 100 µM
GI50 [26]: 5.47 µM
TGI [26]: 48.8 µM
GI50 [27]: 2.05 µM
TGI [27]: 16.3 µM
GI50 [28]: 4.71 µM
TGI [28]: > 100 µM
GI50 [29]: 3.35 µM
TGI [29]: > 100 µM
GI50 [30]: 1.91 µM
TGI [30]: 37.4 µM
GI50 [32]: 1.62 µM
TGI [32]: 5.91 µM
GI50 [33]: 1.45 µM
TGI [33]: 35.6 µM
GI50 [34]: 2.44 µM
TGI [34]: > 100 µM
GI50 [35]: 2.82 µM
TGI [35]: > 100 µM
GI50 [36]: 5.28 µM
TGI [36]: 97.4 µM
GI50 [37]: 2.13 µM
TGI [37]: > 100 µM
GI50 [39]: 3.41 µM
TGI [39]: > 100 µM
GI50 [40]: 1.44 µM
TGI [40]: 56.4 µM
GI50 [41]: 1.35 µM
TGI [41]: 30.5 µM
GI50 [42]: 3.66 µM
TGI [42]: > 100 µM
GI50 [43]: 3.82 µM
TGI [43]: 36 µM
GI50 [44]: 2.7 µM
TGI [44]: 9.69 µM
GI50 [45]: 20.7 µM
TGI [45]: > 100 µM
GI50 [46]: 1.25 µM
TGI [46]: 3.95 µM
GI50 [47]: 2.01 µM
TGI [47]: 14.5 µM
GI50 [48]: 35.6 µM
TGI [48]: > 100 µM
GI50 [49]: 4.77 µM
TGI [49]: > 100 µM
GI50 [50]: 3.88 µM
TGI [50]: > 100 µM
GI50 [52]: 4.59 µM
TGI [52]: > 100 µM
GI50 [53]: 3.29 µM
TGI [53]: > 100 µM
GI50 [54]: 4.22 µM
TGI [54]: > 100 µM
GI50 [55]: 2.08 µM
TGI [55]: > 100 µM
GI50 [56]: 1.8 µM
TGI [56]: 11.9 µM
GI50 [57]: 3.1 µM
TGI [57]: 33.7 µM

CCCCNC(=O)Nc1c(C(N)=O)c2n(c1C(=O)OCC)CCCCC2
TGI [1]: > 100 µM
TGI [2]: > 100 µM
TGI [4]: > 100 µM
TGI [5]: > 100 µM
TGI [6]: > 100 µM
TGI [58]: > 100 µM
TGI [7]: > 100 µM
TGI [8]: > 100 µM
TGI [10]: > 100 µM
TGI [11]: > 100 µM
TGI [12]: > 100 µM
TGI [13]: > 100 µM
TGI [14]: > 100 µM
TGI [15]: > 100 µM
TGI [16]: > 100 µM
TGI [17]: > 100 µM
TGI [18]: > 100 µM
TGI [19]: > 100 µM
TGI [20]: > 100 µM
TGI [21]: > 100 µM
TGI [24]: > 100 µM
TGI [25]: > 100 µM
TGI [26]: > 100 µM
TGI [27]: > 100 µM
TGI [28]: > 100 µM
TGI [30]: > 100 µM
TGI [31]: > 100 µM
TGI [32]: > 100 µM
TGI [33]: > 100 µM
TGI [34]: > 100 µM
TGI [35]: > 100 µM
TGI [36]: > 100 µM
TGI [37]: > 100 µM
TGI [38]: > 100 µM
TGI [39]: > 100 µM
TGI [40]: > 100 µM
TGI [41]: > 100 µM
TGI [42]: > 100 µM
TGI [43]: > 100 µM
TGI [44]: > 100 µM
TGI [45]: > 100 µM
TGI [46]: > 100 µM
TGI [47]: > 100 µM
TGI [48]: > 100 µM
TGI [49]: > 100 µM
TGI [50]: 58.4 µM
TGI [52]: > 100 µM
TGI [53]: > 100 µM
TGI [54]: > 100 µM
TGI [55]: > 100 µM
TGI [56]: > 100 µM
TGI [57]: > 100 µM
